Paper PMC8619046, “ABCB1 and ABCG2 Control Brain Accumulation and Intestinal Disposition of the Novel ROS1/TRK/ALK Inhibitor Repotrectinib, While OATP1A/1B, ABCG2, and CYP3A Limit Its Oral Availability” (Pharmaceutics, 2021)
Where “and” joins values, the source holds several entries; their conditions need not be identical. Equal values may be shown once. Read-outs that look alike come from different tables or passages of the source.

Key:
Assay type in all cases: in vivo
[1] = 8-h pilot oral plasma pharmacokinetics and tissue distribution, female wild-type, Abcb1a/1b;Abcg2−/− and Oatp1a/1b−/− mice; conditions: 10 mg/kg oral; for Fold change (SIC (% of dose)-to-plasma ratio) / Fold change SIC (% of dose) / Fold increase Cbrain / Fold increase Cliver / Fold increase ratio (liver-to-plasma) / Fold change AUC0-8h / Fold increase ratio (brain-to-plasma): vs wild-type; for Kp at 8 h / concentration at 8 h / Cmax / AUC(0-t): female, po; for AUC(0-t): read-out: AUC0-8h
Excerpt: (§1) Mice with similar average ages (and body weights) were randomly allocated in experimental groups as far as possible. Mice were maintained in a temperature-controlled and specific pathogen-free environment with a 12-h light and 12-h dark cycle and they received a standard diet (Transbreed, SDS Diets, Technilab-BMI, Someren, The Netherlands) and acidified water ad libitum. […] Given the objective main readout (repotrectinib plasma and tissue concentrations as measured by LC-MS/MS), no blinding method was applied.
(§2) Repotrectinib was dissolved in dimethyl sulfoxide (DMSO) at a concentration of 50 mg/mL. This stock solution was first diluted 3-fold with ethanol/polysorbate 80 (1/1; v/v), followed by further dilution with a 10 mM hydrochloric acid solution, yielding a dosing solution of 1 mg/mL, freshly prepared on the day of experiment. Final concentrations of the solvents in the administration solution were: 2%, 2%, 2%, and 94% (all v/v) for DMSO, ethanol, polysorbate 80, and 10 mM hydrochloric acid solution, respectively.
(§3) To minimize variation in absorption upon oral administration, mice were fasted for 2–3 h before repotrectinib (10 mg/kg body weight) was administered by gavage into the stomach at 10 µL/g body weight, with a blunt-ended needle. Tail vein serial blood samples were collected at 0.125, 0.25, 0.5, 1, 2 and 4 h using heparinized capillary tubes (Sarstedt, Nümbrecht, Germany) for the 8-h experiments. For the 4- and 2-h experiments, blood samplings were performed from the tail vein with the same schedule, but terminated at 2 and 1 h, respectively. Eight, four, or two hours after oral administration, mice were deeply anesthetized with 2–3% isoflurane, followed by cardiac puncture to collect blood in Eppendorf tubes containing heparin as an anticoagulant. Brain, liver, spleen, kidney, lung, small intestine, and testis were rapidly collected after sacrificing the mice by cervical dislocation. The small intestinal contents (SIC) were separated from small intestinal tissue (SI), which was flushed and rinsed with cold saline to remove any residual feces. Brain, liver, spleen, kidney, lung, SI, SIC, and testis were homogenized with 1, 3, 1, 2, 1, 3, 2, and 1 mL of 2% BSA (w/v), respectively. Plasma fraction was isolated from blood by centrifugation at 9000× g for 6 min at 4 °C. All samples were stored at −30 °C until analysis.
(§4) A sensitive and specific liquid chromatography-tandem mass spectrometry method using protein precipitation pre-treatment was adopted to quantify the concentration of repotrectinib in DMEM medium, plasma samples and tissue homogenates.
(§5) A non-compartmental model using the PKSolver add-in program for Microsoft Excel was adopted to calculate the pharmacokinetic parameters of repotrectinib. Oral availability was assessed by the plasma area under the curve (AUC), calculated using repotrectinib plasma concentration-time curves with the linear trapezoidal rule without extrapolating the infinity. Statistical testing was performed in Graphpad Prism7 (Graphpad Software, La Jolla, CA, USA). All data are presented as geometric means ± SD. Heteroscedastic data were log-transformed before applying statistical analysis. When differences between two groups were compared, the two-sided unpaired Student’s t test was used. One-way analysis of variance (ANOVA) was applied when multiple groups were compared, and the Bonferroni post hoc correction was used to accommodate multiple testing. Differences were considered statistically significant when P < 0.05.

[2] = 2-h oral plasma pharmacokinetics and tissue distribution, male wild-type and Oatp1a/1b−/− mice; conditions: 10 mg/kg oral; for concentration at 2 h / Cmax / AUC(0-t) / Tmax / Kp at 2 h: mouse; for Cmax / AUC(0-t) / Tmax: plasma; for AUC(0-t): read-out: AUC0–2h; for Tmax: median (range); for Fold change (SIWC % of dose) / Fold change ratio (SIWC (%)-to-AUC0–2h) / Fold change ratio (SIWC (%)-to-plasma) / Fold change ratio (liver-to-plasma) / Fold increase CSIWC / Fold increase Cliver / Fold increase AUC0–2h: vs wild-type; for Kp at 2 h: male, po, read-out: Liver-to-plasma ratio
Excerpt: as §1, §2, §3, §4, §5

[3] = Toxicity signs observed in mice after oral repotrectinib; conditions: 10 mg/kg oral
Excerpt: as §1, §3

[4] = Table S1, female Abcb1a/1b;Abcg2−/− mice, 8 h
[5] = Table S1, female Abcb1a/1b;Abcg2−/− mice, 8 h, 10 mg/kg
[6] = Table S1, female Oatp1a/1b−/− mice, 8 h
[7] = Table S1, female wild-type mice, 8 h
[8] = FVB, mouse, plasma, 10 mg/kg, Table S1, female Abcb1a/1b;Abcg2−/− mice, 8 h
[9] = FVB, mouse, plasma, 10 mg/kg, Table S1, female wild-type mice, 8 h
[10] = Oatp1a/1b−/− (>99% FVB background), male Oatp1a/1b−/− mice
[11] = male Oatp1a/1b−/− mice vs wild-type
[12] = wild-type (>99% FVB background), male wild-type mice

Compound: C[C@H]1CNC(=O)c2cnn3ccc(nc23)N[C@H](C)c2cc(F)ccc2O1 [repotrectinib]
- Tmax ([1]; >99% FVB background, mouse, plasma, female wild-type and Abcb1a/1b;Abcg2−/− mice, 8-h pilot, read-out: time of peak plasma concentrations after dosing (converted)): 30 min
- Tmax ([1]; FVB, mouse, plasma, Table S1, median (range), female wild-type mice, 8 h, read-out: Tmax): 30 min
- SIC (% of dose) [1, 4]: 0.22 ± 0.20 % of dose
- SIC (% of dose)-to-plasma ratio [1, 4]: 0.48 ± 0.43 ·10-3
- Fold change (SIC (% of dose)-to-plasma ratio) [1, 4]: 0.054
- Fold change SIC (% of dose) [1, 4]: 0.11
- Fold increase Cbrain [1, 4]: 19.5
- Fold increase Cliver [1, 4]: 1.50
- Fold increase ratio (liver-to-plasma) [1, 4]: 0.79
- Fold change AUC0-8h [1, 5]: 1.42 and 1.4
- Fold increase ratio (brain-to-plasma) [1, 5]: 9.46 and 9.5
- SIC (% of dose) [1, 6]: 5.59 ± 3.32 % of dose
- SIC (% of dose)-to-plasma ratio [1, 6]: 14.5 ± 8.9 ·10-3
- Fold change (SIC (% of dose)-to-plasma ratio) [1, 6]: 1.63
- Fold change SIC (% of dose) [1, 6]: 2.69
- Fold increase Cbrain [1, 6]: 3.64
- Fold increase Cliver [1, 6]: 1.43
- Fold increase ratio (brain-to-plasma) [1, 6]: 1.85
- Fold increase ratio (liver-to-plasma) [1, 6]: 0.86
- Fold change AUC0-8h ([1]; Table S1, female Oatp1a/1b−/− mice, 8 h, 10 mg/kg): 1.51 and 1.5
- SIC (% of dose) [1, 7]: 2.08 ± 1.35 % of dose
- SIC (% of dose)-to-plasma ratio [1, 7]: 8.87 ± 1.83 ·10-3
- Fold change (SIC (% of dose)-to-plasma ratio) [1, 7]: 1.00
- Fold change AUC0-8h [1, 7]: 1.00
- Fold change SIC (% of dose) [1, 7]: 1.00
- Fold increase Cbrain [1, 7]: 1.00
- Fold increase Cliver [1, 7]: 1.00
- Fold increase ratio (brain-to-plasma) [1, 7]: 1.00
- Fold increase ratio (liver-to-plasma) [1, 7]: 1.00
- Tmax ([1]; Table S1, median (range), female Abcb1a/1b;Abcg2−/− mice, 8 h): 0.5 (0 .5-1) h
- Tmax ([1]; Table S1, median (range), female Oatp1a/1b−/− mice, 8 h): 0.5 (0.25-1) h
- Kp at 8 h ([1]; FVB, mouse, brain, 10 mg/kg, Table S1, female Abcb1a/1b;Abcg2−/− mice, 8 h, read-out: Brain-to-plasma ratio): 2.46 ± 0.31
- concentration at 8 h ([1]; FVB, mouse, brain, 10 mg/kg, Table S1, female Abcb1a/1b;Abcg2−/− mice, 8 h, read-out: Cbrain): 1000 ± 320 ng/g
- Kp at 8 h ([1]; FVB, mouse, brain, 10 mg/kg, Table S1, female Oatp1a/1b−/− mice, 8 h, read-out: Brain-to-plasma ratio): 0.48 ± 0.12
- concentration at 8 h ([1]; FVB, mouse, brain, 10 mg/kg, Table S1, female Oatp1a/1b−/− mice, 8 h, read-out: Cbrain): 186 ± 51.4 ng/g
- Kp at 8 h ([1]; FVB, mouse, brain, 10 mg/kg, Table S1, female wild-type mice, 8 h, read-out: Brain-to-plasma ratio): 0.26 ± 0.12
- concentration at 8 h ([1]; FVB, mouse, brain, 10 mg/kg, Table S1, female wild-type mice, 8 h, read-out: Cbrain): 51.2 ± 17.8 ng/g
- concentration at 8 h ([1]; FVB, mouse, liver, 10 mg/kg, Table S1, female Abcb1a/1b;Abcg2−/− mice, 8 h, read-out: Cliver): 1780 ± 770 ng/mL
- Kp at 8 h ([1]; FVB, mouse, liver, 10 mg/kg, Table S1, female Abcb1a/1b;Abcg2−/− mice, 8 h, read-out: Liver-to-plasma ratio): 4.21 ± 0.35
- concentration at 8 h ([1]; FVB, mouse, liver, 10 mg/kg, Table S1, female Oatp1a/1b−/− mice, 8 h, read-out: Cliver): 1750 ± 450 ng/mL
- Kp at 8 h ([1]; FVB, mouse, liver, 10 mg/kg, Table S1, female Oatp1a/1b−/− mice, 8 h, read-out: Liver-to-plasma ratio): 4.59 ± 1.28
- concentration at 8 h ([1]; FVB, mouse, liver, 10 mg/kg, Table S1, female wild-type mice, 8 h, read-out: Cliver): 1220 ± 650 ng/mL
- Kp at 8 h ([1]; FVB, mouse, liver, 10 mg/kg, Table S1, female wild-type mice, 8 h, read-out: Liver-to-plasma ratio): 5.36 ± 0.54
- Cmax [1, 8]: 6190 ± 440 ng/mL
- AUC(0-t) [1, 8]: 23100 ± 2110 ng·h/mL
- AUC(0-t) ([1]; FVB, mouse, plasma, 10 mg/kg, Table S1, female Oatp1a/1b−/− mice, 8 h): 24600 ± 3270 ng·h/mL
- Cmax [1, 9]: 4800 ± 1780 ng/mL
- AUC(0-t) [1, 9]: 16300 ± 6350 ng·h/mL
- Cmax ([1]; Oatp1a/1b−/−, >99% FVB background, mouse, plasma, 10 mg/kg, Table S1, female Oatp1a/1b−/− mice, 8 h): 6150 ± 800 ng/mL
- concentration at 2 h ([2]; FVB, small intestine with content, male wild-type mice, read-out: CSIWC): 84700 ± 24100 ng/g
- concentration at 2 h ([2]; Oatp1a/1b−/− (>99% FVB background), liver, male Oatp1a/1b−/− mice, read-out: Cliver): 15300 ± 1600 ng/g
- Cmax [2, 10]: 5380 ± 520 ng/mL
- AUC(0-t) [2, 10]: 8960 ± 770 ng·h/mL
- Tmax [2, 10]: 30 min
- concentration at 2 h ([2]; Oatp1a/1b−/− (>99% FVB background), small intestine with content, male Oatp1a/1b−/− mice, read-out: CSIWC): 121000 ± 29200 ng/g
- liver-to-plasma ratio, fold reduction [2, 11]: 2.3 fold
- relative intestinal (SIWC) recovery corrected for plasma concentration, fold decrease [2, 11]: 2.8 fold
- relative intestinal (SIWC) recovery corrected for plasma exposure (AUC0–2h), fold decrease [2, 11]: 1.9 fold
- SIWC (% of dose) ([2]; male Oatp1a/1b−/− mice): 21.3 ± 3.7 % of dose
- SIWC (%)-to-AUC0–2h ratio ([2]; male Oatp1a/1b−/− mice): 2.40 ± 0.54 *** ·10^−3
- SIWC (%)-to-plasma ratio ([2]; male Oatp1a/1b−/− mice): 5.58 ± 1.09 *** ·10^−3
- Fold change (SIWC % of dose) ([2]; male Oatp1a/1b−/− mice): 1.22
- Fold change ratio (SIWC (%)-to-AUC0–2h) ([2]; male Oatp1a/1b−/− mice): 0.52
- Fold change ratio (SIWC (%)-to-plasma) ([2]; male Oatp1a/1b−/− mice): 0.35
- Fold change ratio (liver-to-plasma) ([2]; male Oatp1a/1b−/− mice): 0.44
- Fold increase CSIWC ([2]; male Oatp1a/1b−/− mice): 1.43
- Fold increase Cliver ([2]; male Oatp1a/1b−/− mice): 1.55
- Fold increase AUC0–2h ([2]; male Oatp1a/1b−/− mice, 10 mg/kg): 2.3 and 2.29
- SIWC (% of dose) ([2]; male wild-type mice): 17.4 ± 5.6 % of dose
- SIWC (%)-to-AUC0–2h ratio ([2]; male wild-type mice): 4.59 ± 1.04 ·10^−3
- SIWC (%)-to-plasma ratio ([2]; male wild-type mice): 15.8 ± 3.9 ·10^−3
- Fold change (SIWC % of dose) ([2]; male wild-type mice): 1.00
- Fold change ratio (SIWC (%)-to-AUC0–2h) ([2]; male wild-type mice): 1.00
- Fold change ratio (SIWC (%)-to-plasma) ([2]; male wild-type mice): 1.00
- Fold change ratio (liver-to-plasma) ([2]; male wild-type mice): 1.00
- Fold increase AUC0–2h ([2]; male wild-type mice): 1.00
- Fold increase CSIWC ([2]; male wild-type mice): 1.00
- Fold increase Cliver ([2]; male wild-type mice): 1.00
- Kp at 2 h ([2]; FVB, liver, 10 mg/kg, male Oatp1a/1b−/− mice): 4 ± 0.54
- Kp at 2 h ([2]; FVB, liver, 10 mg/kg, male wild-type mice): 9.16 ± 1.53
- concentration at 2 h ([2]; wild-type (>99% FVB background), liver, male wild-type mice, read-out: Cliver): 9840 ± 1160 ng/g
- Cmax [2, 12]: 2640 ± 990 ng/mL
- AUC(0-t) [2, 12]: 3920 ± 1290 ng·h/mL
- Tmax [2, 12]: 30 min
- toxicity signs ([3]; Cyp3a−/− and Oatp1a/1b−/− mice): no noticeable signs of toxicity
- time at which signs of toxicity disappeared ([3]; female Abcb1a/1b;Abcg2−/− mice): around 4 h
- time of toxicity signs after oral administration ([3]; female Abcb1a/1b;Abcg2−/− mice): 1 to 2 h
- toxicity signs ([3]; female Abcb1a/1b;Abcg2−/− mice, hypoactivity and continuously closed eyes): mild toxicity signs
- toxicity signs ([3]; female wild-type mice): no noticeable toxicity symptoms
